Literature values, collected in patent publication US20090214648A1 (priority 2008, published 2009).

Columns and labels:
[1] = in vivo

Inhibition of cyclooxygenase (enzyme cyclooxygenase): potent inhibitor | Dose excreted in the urine [1]: more than 90% | Dose excreted unchanged [1]: Less than 10% | Time until excretion is essentially complete [1]: ≤ 24 h
SMILES: CC(C)Cc1ccc(C(C)C(=O)O)cc1 (stereo not shown) [Ibuprofen, 2-[4-(2-methylpropyl)phenyl]propanoic acid]
